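Cells were grown in 96-well plates and exposed to each compound for 48 hours at five concentrations; endpoints were interpolated linearly between bracketing concentrations, or set to the highest concentration if not reached. At the GI50, growth is halved. The concentration for full growth arrest is given as TGI.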
Key:
Test in all cases: NCI-60 cell line screen, 48 h
[1] = test system: IGROV1 ovarian
[2] = test system: PC-3 prostate
[3] = test system: HOP-62 NSCLC
[4] = test system: HT29 colon
[5] = test system: EKVX NSCLC
[6] = test system: OVCAR-5 ovarian
[7] = test system: K-562 leukemia
[8] = test system: NCI-H522 lung
[9] = test system: RPMI-8226 leukemia
[10] = test system: MOLT-4 leukemia
[11] = test system: U251 CNS
[12] = test system: NCI/ADR-RES ovarian
[13] = test system: KM12 colon
[14] = test system: UACC-257 melanoma
[15] = test system: HCC-2998 colon
[16] = test system: UACC-62 melanoma
[17] = test system: SR leukemia
[18] = test system: T-47D breast
[19] = test system: SK-MEL-28 melanoma
[20] = test system: MCF7 breast
[21] = test system: SN12C renal
[22] = test system: 786-0 renal
[23] = test system: CAKI-1 renal
[24] = test system: NCI-H460 lung
[25] = test system: HS 578T breast
[26] = test system: LOX IMVI melanoma
[27] = test system: ACHN renal
[28] = test system: SF-268 CNS
[29] = test system: HL-60(TB) leukemia
[30] = test system: COLO 205 colon
[31] = test system: CCRF-CEM leukemia
[32] = test system: DU-145 prostate
[33] = test system: SW-620 colon
[34] = test system: M14 melanoma
[35] = test system: RXF 393 renal
[36] = test system: OVCAR-3 ovarian
[37] = test system: MDA-MB-231 breast
[38] = test system: SNB-75 CNS
[39] = test system: A549 NSCLC
[40] = test system: HCT-15 colon
[41] = test system: HCT-116 colon
[42] = test system: OVCAR-8 ovarian
[43] = test system: HOP-92 NSCLC
[44] = test system: A498 renal
[45] = test system: SK-OV-3 ovarian
[46] = test system: OVCAR-4 ovarian
[47] = test system: SK-MEL-2 melanoma
[48] = test system: BT-549 breast
[49] = test system: MDA-MB-435
[50] = test system: UO-31 renal
[51] = test system: SK-MEL-5 melanoma
[52] = test system: SNB-19 CNS
[53] = test system: SF-295 CNS
[54] = test system: SF-539 CNS
[55] = test system: NCI-H226 lung
[56] = test system: TK-10 renal
[57] = test system: NCI-H23 lung
[58] = test system: MALME-3M melanoma

SMILES: COc1ccc(C2SCC(=O)N2NC(=O)C(O)c2ccccc2)cc1 (stereo unspecified)
- GI50 [1]: > 100 µM
- TGI [1]: > 100 µM
- GI50 [2]: > 100 µM
- TGI [2]: > 100 µM
- GI50 [3]: > 100 µM
- TGI [3]: > 100 µM
- GI50 [4]: > 100 µM
- TGI [4]: > 100 µM
- GI50 [5]: > 100 µM
- TGI [5]: > 100 µM
- GI50 [6]: > 100 µM
- TGI [6]: > 100 µM
- GI50 [7]: 55.5 µM
- TGI [7]: > 100 µM
- GI50 [8]: > 100 µM
- TGI [8]: > 100 µM
- GI50 [9]: 61.3 µM
- TGI [9]: > 100 µM
- GI50 [10]: > 100 µM
- TGI [10]: > 100 µM
- GI50 [11]: > 100 µM
- TGI [11]: > 100 µM
- GI50 [12]: > 100 µM
- TGI [12]: > 100 µM
- GI50 [13]: > 100 µM
- TGI [13]: > 100 µM
- GI50 [14]: > 100 µM
- TGI [14]: > 100 µM
- GI50 [15]: > 100 µM
- TGI [15]: > 100 µM
- GI50 [16]: > 100 µM
- TGI [16]: > 100 µM
- GI50 [17]: > 100 µM
- TGI [17]: > 100 µM
- GI50 [18]: > 100 µM
- TGI [18]: > 100 µM
- GI50 [19]: > 100 µM
- TGI [19]: > 100 µM
- GI50 [20]: > 100 µM
- TGI [20]: > 100 µM
- GI50 [21]: > 100 µM
- TGI [21]: > 100 µM
- GI50 [22]: > 100 µM
- TGI [22]: > 100 µM
- GI50 [23]: > 100 µM
- TGI [23]: > 100 µM
- GI50 [24]: > 100 µM
- TGI [24]: > 100 µM
- GI50 [25]: > 100 µM
- TGI [25]: > 100 µM
- GI50 [26]: > 100 µM
- TGI [26]: > 100 µM
- GI50 [27]: > 100 µM
- TGI [27]: > 100 µM
- GI50 [28]: > 100 µM
- TGI [28]: > 100 µM
- GI50 [29]: > 100 µM
- TGI [29]: > 100 µM
- GI50 [30]: > 100 µM
- TGI [30]: > 100 µM
- GI50 [31]: > 100 µM
- TGI [31]: > 100 µM
- GI50 [32]: > 100 µM
- TGI [32]: > 100 µM
- GI50 [33]: > 100 µM
- TGI [33]: > 100 µM
- GI50 [34]: > 100 µM
- TGI [34]: > 100 µM
- GI50 [35]: > 100 µM
- TGI [35]: > 100 µM
- GI50 [36]: > 100 µM
- TGI [36]: > 100 µM
- GI50 [37]: > 100 µM
- TGI [37]: > 100 µM
- GI50 [38]: 80.9 µM
- TGI [38]: > 100 µM
- GI50 [39]: > 100 µM
- TGI [39]: > 100 µM
- GI50 [40]: > 100 µM
- TGI [40]: > 100 µM
- GI50 [41]: > 100 µM
- TGI [41]: > 100 µM
- GI50 [42]: > 100 µM
- TGI [42]: > 100 µM
- GI50 [43]: > 100 µM
- TGI [43]: > 100 µM
- GI50 [44]: > 100 µM
- TGI [44]: > 100 µM
- GI50 [45]: > 100 µM
- TGI [45]: > 100 µM
- GI50 [46]: > 100 µM
- TGI [46]: > 100 µM
- GI50 [47]: > 100 µM
- TGI [47]: > 100 µM
- GI50 [48]: > 100 µM
- TGI [48]: > 100 µM
- GI50 [49]: > 100 µM
- TGI [49]: > 100 µM
- GI50 [50]: > 100 µM
- TGI [50]: > 100 µM
- GI50 [51]: > 100 µM
- TGI [51]: > 100 µM
- GI50 [52]: > 100 µM
- TGI [52]: > 100 µM
- GI50 [53]: > 100 µM
- TGI [53]: > 100 µM
- GI50 [54]: > 100 µM
- TGI [54]: > 100 µM
- GI50 [55]: > 100 µM
- TGI [55]: > 100 µM
- GI50 [56]: > 100 µM
- TGI [56]: > 100 µM

SMILES: O=C(O)c1cc2cc(O)ccc2[nH]1
- GI50 [1]: > 100 µM
- TGI [1]: > 100 µM
- GI50 [2]: > 100 µM
- TGI [2]: > 100 µM
- GI50 [57]: > 100 µM
- TGI [57]: > 100 µM
- GI50 [3]: > 100 µM
- TGI [3]: > 100 µM
- GI50 [4]: > 100 µM
- TGI [4]: > 100 µM
- GI50 [5]: > 100 µM
- TGI [5]: > 100 µM
- GI50 [6]: > 100 µM
- TGI [6]: > 100 µM
- GI50 [58]: > 100 µM
- TGI [58]: > 100 µM
- GI50 [8]: > 100 µM
- TGI [8]: > 100 µM
- GI50 [9]: > 100 µM
- TGI [9]: > 100 µM
- GI50 [10]: > 100 µM
- TGI [10]: > 100 µM
- GI50 [11]: > 100 µM
- TGI [11]: > 100 µM
- GI50 [12]: > 100 µM
- TGI [12]: > 100 µM
- GI50 [13]: > 100 µM
- TGI [13]: > 100 µM
- GI50 [14]: > 100 µM
- TGI [14]: > 100 µM
- GI50 [15]: > 100 µM
- TGI [15]: > 100 µM
- GI50 [16]: > 100 µM
- TGI [16]: > 100 µM
- GI50 [17]: > 100 µM
- TGI [17]: > 100 µM
- GI50 [18]: > 100 µM
- TGI [18]: > 100 µM
- GI50 [19]: > 100 µM
- TGI [19]: > 100 µM
- GI50 [20]: > 100 µM
- TGI [20]: > 100 µM
- GI50 [21]: > 100 µM
- TGI [21]: > 100 µM
- GI50 [22]: > 100 µM
- TGI [22]: > 100 µM
- GI50 [23]: > 100 µM
- TGI [23]: > 100 µM
- GI50 [24]: > 100 µM
- TGI [24]: > 100 µM
- GI50 [25]: > 100 µM
- TGI [25]: > 100 µM
- GI50 [26]: > 100 µM
- TGI [26]: > 100 µM
- GI50 [27]: > 100 µM
- TGI [27]: > 100 µM
- GI50 [28]: > 100 µM
- TGI [28]: > 100 µM
- GI50 [29]: > 100 µM
- TGI [29]: > 100 µM
- GI50 [30]: > 100 µM
- TGI [30]: > 100 µM
- GI50 [31]: > 100 µM
- TGI [31]: > 100 µM
- GI50 [32]: > 100 µM
- TGI [32]: > 100 µM
- GI50 [33]: > 100 µM
- TGI [33]: > 100 µM
- GI50 [34]: > 100 µM
- TGI [34]: > 100 µM
- GI50 [35]: > 100 µM
- TGI [35]: > 100 µM
- GI50 [36]: > 100 µM
- TGI [36]: > 100 µM
- GI50 [37]: > 100 µM
- TGI [37]: > 100 µM
- GI50 [38]: > 100 µM
- TGI [38]: > 100 µM
- GI50 [39]: > 100 µM
- TGI [39]: > 100 µM
- GI50 [40]: > 100 µM
- TGI [40]: > 100 µM
- GI50 [41]: > 100 µM
- TGI [41]: > 100 µM
- GI50 [42]: > 100 µM
- TGI [42]: > 100 µM
- GI50 [43]: > 100 µM
- TGI [43]: > 100 µM
- GI50 [44]: > 100 µM
- TGI [44]: > 100 µM
- GI50 [45]: > 100 µM
- TGI [45]: > 100 µM
- GI50 [46]: > 100 µM
- TGI [46]: > 100 µM
- GI50 [47]: > 100 µM
- TGI [47]: > 100 µM
- GI50 [48]: > 100 µM
- TGI [48]: > 100 µM
- GI50 [49]: > 100 µM
- TGI [49]: > 100 µM
- GI50 [50]: > 100 µM
- TGI [50]: > 100 µM
- GI50 [51]: > 100 µM
- TGI [51]: > 100 µM
- GI50 [52]: > 100 µM
- TGI [52]: > 100 µM
- GI50 [53]: > 100 µM
- TGI [53]: > 100 µM
- GI50 [54]: > 100 µM
- TGI [54]: > 100 µM
- GI50 [55]: > 100 µM
- TGI [55]: > 100 µM
- GI50 [56]: > 100 µM
- TGI [56]: > 100 µM
